Reference: patent US11739100B2, “2,3-dihydro-1h-imidazo{1,2-a}pyrimidin-5-one and this 1,2,3,4-tetrahydropyrimido{1,2-a}pyrimidin-6-one derivatives comprising a substituted morpholine, preparation thereof and pharmaceutical use thereof” (SANOFI, priority 2012, dated 2023)
pIC50: −log10 of the molar value. Values belong to the molecule of their own block, whether it stands above or below them.

Molecular target: T1, recombinant Vps34 (Homo sapiens, UniProt Q8NEB9)
T1 construct: purchased Invitrogen PV5126
Experiment: Phosphorylation of phosphatidylinositol (PI) by Vps34 in vitro, ADP detected by TR-FRET (HTRF Transcreener ADP)
Assay type: biochemical
Conditions: 10 μM ATP, 55 μg/ml PI, approximately 3 nM Vps34, 1 hour at ambient temperature; absolute IC50, mean of two independent experiments; read-out: IC50 activity range

T1 sequence (Q8NEB9 whole entry): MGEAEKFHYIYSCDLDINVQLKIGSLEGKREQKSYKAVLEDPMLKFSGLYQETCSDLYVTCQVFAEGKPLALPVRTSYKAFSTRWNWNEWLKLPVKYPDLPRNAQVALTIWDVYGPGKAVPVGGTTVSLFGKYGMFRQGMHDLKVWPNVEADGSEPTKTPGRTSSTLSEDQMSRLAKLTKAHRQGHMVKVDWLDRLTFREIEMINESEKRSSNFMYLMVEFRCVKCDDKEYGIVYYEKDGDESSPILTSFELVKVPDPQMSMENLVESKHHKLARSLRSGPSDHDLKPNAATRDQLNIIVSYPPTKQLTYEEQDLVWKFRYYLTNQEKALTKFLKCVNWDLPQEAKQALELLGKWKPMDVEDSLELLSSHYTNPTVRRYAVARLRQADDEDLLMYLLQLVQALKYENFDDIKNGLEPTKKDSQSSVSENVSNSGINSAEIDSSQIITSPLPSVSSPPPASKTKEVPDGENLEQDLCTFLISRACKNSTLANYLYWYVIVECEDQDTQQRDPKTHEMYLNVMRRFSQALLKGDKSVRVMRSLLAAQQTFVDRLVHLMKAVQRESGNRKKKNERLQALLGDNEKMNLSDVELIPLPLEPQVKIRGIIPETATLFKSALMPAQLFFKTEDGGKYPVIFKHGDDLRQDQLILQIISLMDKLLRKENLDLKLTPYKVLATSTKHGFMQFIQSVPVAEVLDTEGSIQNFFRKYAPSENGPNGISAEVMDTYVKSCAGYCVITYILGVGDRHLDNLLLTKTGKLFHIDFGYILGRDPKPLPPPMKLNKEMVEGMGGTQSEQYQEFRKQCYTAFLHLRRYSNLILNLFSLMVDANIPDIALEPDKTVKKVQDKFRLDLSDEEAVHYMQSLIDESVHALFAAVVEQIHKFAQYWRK

- pIC50: > 8.00
SMILES: C[C@@H]1COCCN1c1cc(=O)n2c(n1)N(Cc1ccon1)[C@](C)(C(F)(F)F)CC2 [Example 215, (S)-9-Isoxazol-3-yl-methyl-8-methyl-2-((R)-3-methyl-morpholin-4-yl)-8-trifluoromethyl-6,7,8,9-tetrahydro-pyrimido[1,2-a]-pyrimidin-4-one]

- pIC50: > 8.00
SMILES: C[C@@H]1COCCN1c1cc(=O)n2c(n1)N(Cc1cccnc1F)[C@H](C(F)(F)F)CC2 [Example 221, (S)-9-(2-Fluoropyridin-3-ylmethyl)-2-((R)-3-methylmorpholin-4-yl)-8-trifluoromethyl-6,7,8,9-tetrahydro-pyrimido[1,2-a]-pyrimidin-4-one]

- pIC50: > 8.00
SMILES: C[C@@H]1COCCN1c1cc(=O)n2c(n1)N(Cc1ccnc(Cl)c1)[C@](C)(C(F)(F)F)C2 [Example 181, (S)-1-(2-Chloro-pyridin-4-ylmethyl)-2-methyl-7-((R)-3-methylmorpholin-4-yl)-2-trifluoromethyl-2,3-dihydro-1H-imidazo[1,2-a]-pyrimidin-5-one]

- pIC50: > 8.00
SMILES: CC(C)c1noc(CN2c3nc(N4CCOC[C@H]4C)c(F)c(=O)n3CC[C@H]2C(F)(F)F)n1 [Example 248, (S)-3-Fluoro-9-(3-isopropyl-[1,2,4]oxadiazol-5-yl-methyl)-2-((R)-3-methylmorpholin-4-yl)-8-trifluoromethyl-6,7,8,9-tetrahydro-pyrimido[1,2-a]-pyrimidin-4-one]

- pIC50: > 8.00
SMILES: C[C@@H]1COCCN1c1cc(=O)n2c(n1)N(Cc1nnc(C3CC3)o1)[C@H](C(F)(F)F)CC2 [Example 142, (S)-9-(5-Cyclopropyl-[1,3,4]oxadiazol-2-yl-methyl)-2-((R)-3-methylmorpholin-4-yl)-8-trifluoromethyl-6,7,8,9-tetrahydro-pyrimido[1,2-a]-pyrimidin-4-one]

- pIC50: > 8.00
SMILES: Cc1cc(C(=O)CN2c3nc(N4CCOC[C@H]4C)cc(=O)n3CC[C@H]2C(F)(F)F)no1 [Example 311, (S)-9-[2-(5-Methyl-isoxazol-3-yl)-2-oxo-ethyl]-2-((R)-3-methyl-morpholin-4-yl)-8-trifluoromethyl-6,7,8,9-tetrahydro-pyrimido[1,2-a]-pyrimidin-4-one]

- pIC50: > 8.00
SMILES: C[C@@H]1COCCN1c1cc(=O)n2c(n1)N(Cc1ccc(Cl)nc1)CC[C@@H]2C(F)(F)F [Example 115, (R)-9-(6-Chloro-pyridin-3-ylmethyl)-2-((R)-3-methyl-morpholin-4-yl)-6-trifluoromethyl-6,7,8,9-tetrahydro-pyrimido[1,2-a]-pyrimidin-4-one]

- pIC50: > 8.00
SMILES: C[C@@H]1COCCN1c1cc(=O)n2c(n1)N(CC(=O)C1CCOCC1)[C@H](C(F)(F)F)CC2 [Example 245, (S)-2-((R)-3-Methyl-morpholin-4-yl)-9-[2-oxo-2-(tetrahydro-pyran-4-yl)ethyl]-8-trifluoromethyl-6,7,8,9-tetrahydro-pyrimido[1,2-a]-pyrimidin-4-one]

- pIC50: > 8.00
SMILES: C[C@@H]1COCCN1c1cc(=O)n2c(n1)N(CC(=O)N1CCCO1)[C@H](C(F)(F)F)CC2 [Example 319, (S)-9-(2-Isoxazolidin-2-yl-2-oxoethyl)-2-((R)-3-methyl-morpholin-4-yl)-8-trifluoromethyl-6,7,8,9-tetrahydropyrimido-[1,2-a]pyrimidin-4-one]

- pIC50: > 8.00
SMILES: COC(=O)CN1c2nc(N3CCOC[C@H]3C)c(F)c(=O)n2CC[C@H]1C(F)(F)F [Example 283, [(S)-7-Fluoro-8-((R)-3-methylmorpholin-4-yl)-6-oxo-2-trifluoromethyl-3,4-dihydro-2H,6H-pyrimido[1,2-a]-pyrimidin-1-yl]acetic acid methyl ester]

- pIC50: < 7.00
SMILES: CC(=O)N1c2nc(N3CCOC[C@H]3C)cc(=O)n2CC[C@H]1C(F)(F)F [Example 238, (S)-9-Acetyl-2-((R)-3-methylmorpholin-4-yl)-8-trifluoromethyl-6,7,8,9-tetrahydro-pyrimido[1,2-a]-pyrimidin-4-one]

- pIC50: > 8.00
SMILES: C[C@@H]1COCCN1c1cc(=O)n2c(n1)N(Cc1ccc(F)cn1)[C@H](C(F)(F)F)CC2 [Example 92, (S)-9-(5-Fluoropyridin-2-ylmethyl)-2-((R)-3-methylmorpholin-4-yl)-8-trifluoromethyl-6,7,8,9-tetrahydro-pyrimido[1,2-a]-pyrimidin-4-one]

More lines, now with the values behind:

SMILES: CC(=O)CN1CC[C@H](C(F)(F)F)n2c1nc(N1CCOC[C@H]1C)c(F)c2=O [Example 148, (R)-3-Fluoro-2-((R)-3-methylmorpholin-4-yl)-9-(2-oxopropyl)-6-trifluoromethyl-6,7,8,9-tetrahydro-pyrimido[1,2-a]-pyrimidin-4-one]
- pIC50: 7.00 to 8.00

SMILES: CC(C)Oc1cc(CN2c3nc(N4CCOC[C@H]4C)cc(=O)n3CC[C@H]2C(F)(F)F)ccn1 [Example 225, (S)-9-(2-Isopropoxy-pyridin-4-ylmethyl)-2-((R)-3-methyl-morpholin-4-yl)-8-trifluoromethyl-6,7,8,9-tetrahydro-pyrimido[1,2-a]-pyrimidin-4-one]
- pIC50: > 8.00

SMILES: Cc1nc(CN2c3nc(N4CC5CCC(C4)O5)c(F)c(=O)n3CC[C@H]2C(F)(F)F)no1 [Example 275, (S)-3-Fluoro-9-(5-methyl-[1,2,4]oxadiazol-3-yl-methyl)-2-(8-oxa-3-azabicyclo[3.2.1]oct-3-yl)-8-trifluoromethyl-6,7,8,9-tetrahydro-pyrimido[1,2-a]-pyrimidin-4-one]
- pIC50: 7.00 to 8.00

SMILES: C[C@@H]1COCCN1c1cc(=O)n2c(n1)N(Cc1cncc(F)c1)[C@H](C(F)(F)F)CC2 [Example 94, (S)-9-(5-Fluoropyridin-3-ylmethyl)-2-((R)-3-methylmorpholin-4-yl)-8-trifluoromethyl-6,7,8,9-tetrahydro-pyrimido[1,2-a]-pyrimidin-4-one]
- pIC50: > 8.00

SMILES: C[C@@H]1COC[C@H](C)N1c1cc(=O)n2c(n1)N(Cc1ccc(Cl)s1)[C@H](C(F)(F)F)CC2 [Example 151, (S)-9-(5-Chloro-thiophen-2-ylmethyl)-2-((3S,5R)-3,5-dimethylmorpholin-4-yl)-8-trifluoromethyl-6,7,8,9-tetrahydro-pyrimido[1,2-a]-pyrimidin-4-one]
- pIC50: 7.00 to 8.00

SMILES: C[C@@H]1COCCN1c1cc(=O)n2c(n1)N(Cc1ccon1)[C@H](C(F)(F)F)CC2 [Example 33, (S)-9-Isoxazol-3-yl-methyl-2-((R)-3-methylmorpholin-4-yl)-8-trifluoromethyl-6,7,8,9-tetrahydro-pyrimido[1,2-a]-pyrimidin-4-one]
- pIC50: > 8.00

SMILES: Cc1ccc(S(=O)(=O)N2c3nc(N4CCOC[C@H]4C)cc(=O)n3CC[C@H]2C(F)(F)F)cc1 [Example 104, (S)-2-((R)-3-Methyl-morpholin-4-yl)-9-(toluene-4-sulfonyl)-8-trifluoromethyl-6,7,8,9-tetrahydro-pyrimido[1,2-a]-pyrimidin-4-one]
- pIC50: 7.00 to 8.00

SMILES: C[C@@H]1COCCN1c1cc(=O)n2c(n1)N(CC1CCCO1)[C@H](C(F)(F)F)CC2 (single isomer, unassigned) [Example 136]
- pIC50: > 8.00

SMILES: C[C@@H]1COCCN1c1cc(=O)n2c(n1)N(CC(=O)C1CCOC1)[C@H](C(F)(F)F)CC2 (stereo partly drawn) [Example 269, (S)-2-((R)-3-Methyl-morpholin-4-yl)-9-[2-oxo-2-(tetrahydro-furan-3-yl)ethyl]-8-trifluoromethyl-6,7,8,9-tetrahydro-pyrimido[1,2-a]-pyrimidin-4-one]
- pIC50: 7.00 to 8.00

SMILES: C[C@@H]1COCCN1c1cc(=O)n2c(n1)N(c1ccc(OC(F)F)nc1)[C@H](C(F)(F)F)CC2 [Example 124, (S)-9-(6-Difluoromethoxy-pyridin-3-yl)-2-((R)-3-methylmorpholin-4-yl)-8-trifluoromethyl-6,7,8,9-tetrahydro-pyrimido[1,2-a]-pyrimidin-4-one]
- pIC50: > 8.00

SMILES: C[C@@H]1COCCN1c1cc(=O)n2c(n1)N(CC(=O)C1(C)CCCC1)[C@H](C(F)(F)F)CC2 [Example 253, (S)-9-[2-(1-Methyl-cyclopentyl)-2-oxo-ethyl]-2-((R)-3-methyl-morpholin-4-yl)-8-trifluoromethyl-6,7,8,9-tetrahydro-pyrimido[1,2-a]-pyrimidin-4-one]
- pIC50: > 8.00

SMILES: CC(C)Oc1cc(N2CC[C@H](C(F)(F)F)n3c2nc(N2CCOC[C@H]2C)cc3=O)ccn1 [Example 114, (R)-9-(2-Isopropoxy-pyridin-4-yl)-2-((R)-3-methylmorpholin-4-yl)-6-trifluoromethyl-6,7,8,9-tetrahydro-pyrimido[1,2-a]-pyrimidin-4-one]
- pIC50: > 8.00

SMILES: Cc1noc(CN2c3nc(N4CCOC[C@H]4C)c(F)c(=O)n3CC[C@H]2C(F)(F)F)n1 [Example 19, (S)-3-Fluoro-2-((R)-3-methylmorpholin-4-yl)-9-(3-methyl-[1,2,4]oxadiazol-5-yl-methyl)-8-trifluoromethyl-6,7,8,9-tetrahydro-pyrimido[1,2-a]-pyrimidin-4-one]
- pIC50: > 8.00

SMILES: C[C@@H]1COCCN1c1cc(=O)n2c(n1)N(Cc1ncco1)[C@H](C(F)(F)F)CC2 [Example 77, (S)-2-((R)-3-Methyl-morpholin-4-yl)-9-oxazol-2-ylmethyl-8-trifluoromethyl-6,7,8,9-tetrahydro-pyrimido[1,2-a]-pyrimidin-4-one]
- pIC50: 7.00 to 8.00

SMILES: C[C@@H]1COCCN1c1cc(=O)n2c(n1)N(CC(C)(C)O)[C@](C)(C(F)(F)F)CC2 [Example 200, (S)-9-(2-Hydroxy-2-methylpropyl)-8-methyl-2-((R)-3-methylmorpholin-4-yl)-8-trifluoromethyl-6,7,8,9-tetrahydro-pyrimido[1,2-a]-pyrimidin-4-one]
- pIC50: > 8.00

SMILES: Cc1cc(CN2c3nc(N4CCOC[C@H]4C)c(F)c(=O)n3CC[C@H]2C(F)(F)F)on1 [Example 299, (S)-3-Fluoro-9-(3-methylisoxazol-5-yl-methyl)-2-((R)-3-methylmorpholin-4-yl)-8-trifluoromethyl-6,7,8,9-tetrahydro-pyrimido[1,2-a]-pyrimidin-4-one]
- pIC50: > 8.00

SMILES: CC(C)C(=O)CN1c2nc(N3CCOC[C@H]3C)c(F)c(=O)n2CC[C@H]1C(F)(F)F [Example 4, (S)-3-Fluoro-2-((R)-3-methylmorpholin-4-yl)-9-(3-methyl-2-oxo-butyl)-8-trifluoromethyl-6,7,8,9-tetrahydro-pyrimido[1,2-a]-pyrimidin-4-one]
- pIC50: > 8.00
